Measurements reported in PubChem BioAssay AID248 (DTP/NCI, 2004).
Several values for one entry are separate records, joined by “and”; a condition that tells them apart may be missing. Equal entries are not always repeated. Toxic doses and inconclusive results are not listed. Rule as the data show it: active = T/C of 150% or more; inactive = T/C below 125%. Peptide text beside a SMILES is read from it. * marks the point of attachment. Cbz = O=C(OCc1ccccc1)*; OBn = c1ccc(CO*)cc1; Bn = c1ccc(C*)cc1

Tested on: L1210 leukemia ip in BDF1 mice, survival T/C
Assay: NCI In Vivo Anticancer Drug Screen. Data for tumor model L1210 Leukemia (intraperitoneal) in B6D2F1 (BDF1) mice
Details: endpoint: mean survival time, higher = longer survival
How it was run: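 Mice bearing the transplanted tumor received compound or vehicle. Survival of the treated group was divided by that of the vehicle-treated control group to give the ratio.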

[1] = dose: 100.0 mg/kg/injection, schedule: Q01DX009 (ip), vehicle: saline
[2] = dose: 100.0 mg/kg/injection, schedule: Q01DX001 (ip), vehicle: Klucel (hydroxypropylcellulose) (HPC)
[3] = dose: 200.0 mg/kg/injection, schedule: Q01DX001 (ip), vehicle: Klucel (hydroxypropylcellulose) (HPC)
[4] = dose: 400.0 mg/kg/injection, schedule: Q01DX001 (ip), vehicle: Klucel (hydroxypropylcellulose) (HPC)
[5] = dose: 50.0 mg/kg/injection, schedule: Q01DX009 (ip), vehicle: saline
[6] = dose: 50.0 mg/kg/injection, schedule: Q04DX003 (ip), vehicle: saline
[7] = dose: 100.0 mg/kg/injection, schedule: Q04DX003 (ip), vehicle: saline
[8] = dose: 100.0 mg/kg/injection, schedule: Q01DX001 (ip), vehicle: saline
[9] = dose: 100.0 mg/kg/injection, schedule: Q01DX001 (ip), vehicle: saline with Tween-80
[10] = dose: 200.0 mg/kg/injection, schedule: Q01DX001 (ip), vehicle: saline with Tween-80
[11] = dose: 100.0 mg/kg/injection, schedule: Q04DX003 (ip), vehicle: saline with Tween-80
[12] = dose: 200.0 mg/kg/injection, schedule: Q04DX003 (ip), vehicle: saline with Tween-80
[13] = dose: 200.0 mg/kg/injection, schedule: Q04DX003 (ip), vehicle: saline
[14] = dose: 400.0 mg/kg/injection, schedule: Q04DX003 (ip), vehicle: saline
[15] = dose: 100.0 mg/kg/injection, schedule: Q04DX003 (ip), vehicle: Klucel (hydroxypropylcellulose) (HPC)
[16] = dose: 200.0 mg/kg/injection, schedule: Q04DX003 (ip), vehicle: Klucel (hydroxypropylcellulose) (HPC)
[17] = dose: 400.0 mg/kg/injection, schedule: Q04DX003 (ip), vehicle: Klucel (hydroxypropylcellulose) (HPC)
[18] = dose: 100.0 mg/kg/injection, schedule: Q04DX002 (ip), vehicle: Klucel (hydroxypropylcellulose) (HPC)
[19] = dose: 200.0 mg/kg/injection, schedule: Q04DX002 (ip), vehicle: Klucel (hydroxypropylcellulose) (HPC)
[20] = dose: 100.0 mg/kg/injection, schedule: Q01DX009 (ip), vehicle: Klucel (hydroxypropylcellulose) (HPC)
[21] = dose: 200.0 mg/kg/injection, schedule: Q01DX009 (ip), vehicle: Klucel (hydroxypropylcellulose) (HPC)
[22] = dose: 400.0 mg/kg/injection, schedule: Q04DX003 (ip), vehicle: saline with Tween-80
[23] = dose: 100.0 mg/kg/injection, schedule: Q04DX002 (ip), vehicle: saline with Tween-80
[24] = dose: 200.0 mg/kg/injection, schedule: Q04DX002 (ip), vehicle: saline with Tween-80

Measured: T/C

Cc1ccc(S(=O)(=O)N2CCCC(=O)c3ccccc32)cc1
inactive: dose: 100.0 mg/kg/injection, schedule: Q01DX001 (ip), vehicle: carboxymethylcellulose (CMC) 107 % of control | dose: 200.0 mg/kg/injection, schedule: Q01DX001 (ip), vehicle: carboxymethylcellulose (CMC) 100 % of control | dose: 400.0 mg/kg/injection, schedule: Q01DX001 (ip), vehicle: carboxymethylcellulose (CMC) 102 % of control

NCc1ccc(Cl)cc1Cl
inactive: [1] 103 % of control | dose: 200.0 mg/kg/injection, schedule: Q01DX009 (ip), vehicle: saline 108 % of control

O=C(C(=Nc1ccccc1)C(=Nc1ccccc1)C(=O)c1ccccc1)c1ccccc1
inactive: [2] 97 % of control | [3] 98 % of control | [4] 95 % of control

COc1cc(CN(C)C2CCCCC2)cc(OC)c1OC
inactive: dose: 6.25 mg/kg/injection, schedule: Q01DX009 (ip), vehicle: saline 103 % of control | dose: 12.5 mg/kg/injection, schedule: Q01DX009 (ip), vehicle: saline 103 % of control | dose: 25.0 mg/kg/injection, schedule: Q01DX009 (ip), vehicle: saline 100 % of control | dose: 25.0 mg/kg/injection, schedule: Q04DX003 (ip), vehicle: saline 97 % of control | [5] 94 % of control | [6] 103 % of control | [1] 90 % of control | [7] 100 % of control

CCOC1OC(C2COC(=O)O2)C(O)C1O (centres undefined)
inactive: dose: 100.0 mg/kg/injection, schedule: Q04DX002 (ip), vehicle: saline 100 % of control | dose: 200.0 mg/kg/injection, schedule: Q04DX002 (ip), vehicle: saline 100 % of control and 104 % of control | dose: 400.0 mg/kg/injection, schedule: Q04DX002 (ip), vehicle: saline 100 % of control | dose: 800.0 mg/kg/injection, schedule: Q04DX002 (ip), vehicle: saline 100 % of control

CC[n+]1c(COCCOc2ccccc2)sc2cc3c(cc21)OCO3
inactive: [8] 101 % of control

COc1cc2c[n+](C)c3c4ccccc4ccc3c2cc1OC
inactive: [9] 88 % of control | [10] 88 % of control

O=C(O)c1ccc(OCCCOc2ccccc2)c(Cl)c1
inactive: [11] 96 % of control | [12] 93 % of control

CNC(=S)Nc1ncn[nH]1
inactive: [7] 94 % of control | [13] 100 % of control | [14] 86 % of control

Cc1cccc(C)c1NC(=O)Nc1ccc2c(c1)OCO2
inactive: [15] 93 % of control | [16] 92 % of control | [17] 88 % of control

CCN(CC)C(=O)Nc1cccc([N+](=O)[O-])c1
inactive: [18] 104 % of control | [19] 97 % of control | dose: 400.0 mg/kg/injection, schedule: Q04DX002 (ip), vehicle: Klucel (hydroxypropylcellulose) (HPC) 101 % of control

CC(C)C(NC(=O)C(CSCc1ccccc1)NC(=O)OCc1ccccc1)C(=O)OCc1ccccc1 (centres undefined) (Cbz-Cys(Bn)-Val-OBn; configuration not given here)
inactive: [15] 98 % of control | [16] 93 % of control | [17] 96 % of control

CCCCCCCCCCCCCCCCN(C(C)c1ccccc1)S(=O)(=O)c1ccc(OC)c(N)c1 (centres undefined)
inactive: [2] 93 % of control | [20] 94 % of control | [15] 98 % of control | [3] 88 % of control | [21] 94 % of control | [16] 98 % of control | [4] 88 % of control | dose: 400.0 mg/kg/injection, schedule: Q01DX009 (ip), vehicle: Klucel (hydroxypropylcellulose) (HPC) 95 % of control | [17] 98 % of control

CN1CCC2(CC1)C(=O)N(Nc1ccccc1)C(=O)C2c1ccccc1 (centres undefined)
inactive: [18] 101 % of control | [19] 93 % of control

Cc1cccnc1NS(=O)(=O)c1ccccc1
inactive: dose: 100.0 mg/kg/injection, schedule: Q01DX009 (ip), vehicle: saline with Tween-80 101 % of control | [11] 94 % of control | dose: 200.0 mg/kg/injection, schedule: Q01DX009 (ip), vehicle: saline with Tween-80 98 % of control | [12] 94 % of control | dose: 400.0 mg/kg/injection, schedule: Q01DX009 (ip), vehicle: saline with Tween-80 102 % of control | [22] 94 % of control

CCCCSc1nc2ccccc2[nH]1
inactive: [9] 93 % of control | [11] 93 % of control | [10] 104 % of control | [12] 97 % of control | dose: 400.0 mg/kg/injection, schedule: Q01DX001 (ip), vehicle: saline with Tween-80 104 % of control | [22] 100 % of control

O=C(c1ccccn1)c1nnn2ccccc12
inactive: [23] 91 % of control | [24] 87 % of control

O=CNNc1ccccc1
inactive: dose: 75.0 mg/kg/injection, schedule: Q01DX001 (ip), vehicle: acetone 98 % of control | [15] 106 % of control | dose: 150.0 mg/kg/injection, schedule: Q01DX001 (ip), vehicle: acetone 100 % of control | [16] 95 % of control | dose: 300.0 mg/kg/injection, schedule: Q01DX001 (ip), vehicle: acetone 96 % of control

CCOC(=O)N1NC(=O)CC1(C)C
inactive: [7] 105 % of control | [13] 105 % of control | [14] 102 % of control

CCNC(=S)N(CC)CC
inactive: dose: 50.0 mg/kg/injection, schedule: Q01DX009 (ip), vehicle: Klucel (hydroxypropylcellulose) (HPC) 104 % of control | [20] 102 % of control | [11] 100 % of control | [21] 114 % of control | [12] 103 % of control

Cc1cc(Cl)cc(C(=O)Cl)c1O
inactive: [23] 111 % of control | [24] 107 % of control | dose: 400.0 mg/kg/injection, schedule: Q04DX002 (ip), vehicle: saline with Tween-80 103 % of control

CCCNc1ncnc2c1cnn2C
inactive: [5] 124 % of control | [6] 100 % of control | [8] 107 % of control | [7] 102 % of control | dose: 200.0 mg/kg/injection, schedule: Q01DX001 (ip), vehicle: saline 104 % of control | [13] 103 % of control
